Laboratory results: US4985430A, “9-acylamino-tetrahydroacridine derivatives and memory enhancing agent containing said derivative as active ingredient” (priority 1987, dated 1991)

Test system: Na^+ dependent high-affinity choline uptake (HACU) of AF64A-treated rat hippocampus
Experiment: Na+ dependent high-affinity choline uptake (HACU) in crude synaptosomal fraction of AF64A-treated rat hippocampus
Type: biochemical
Conditions: 10^-4 M; HACU, AF64A-treated rat hippocampus synaptosomal fraction; [3H]choline 1 μM; 37° C.
Method: Effects on Na^+ dependent high-affinity choline uptake (HACU) of AF64A-treated rat hippocampus
According to the method of Fischer et al. [J. Pharm. Exper. Ther., Vol. 222, p. 140 (1982)], AF64A was prepared from AF64. AF64A (1.5 nmole/1.5 μl/side) was injected into rat's both ventricles. After one week, subjecting decapitation, only hippocampus was taken out. It was homogenized with 0.32M of sucrose, centrifuged for 10 minutes at 1000 g, and the supernatant was further centrifuged for 20 minutes at 20,000 g to give crude synaptosomal fraction. The crude synaptosomal fraction and medicament were subjected to incubation at 37° C. for 30 minutes, and after addition of [^3 H]choline (1 μM), they were further subjected to incubation at 37° C. for 10 minutes.
As a control, the crude synaptosomal fraction was subjected to incubation at 37° C. for 30 minutes, and after addition of choline [^3 H]choline (1 μM), it was further subjected to incubation at 37° C. for 10 minutes to use. The reaction was stopped by subjecting filtration on Whatman GF/B filter. Radioactivity on the filter was measured by a liquid scintillation counter and it was made as the HACU amount. An amount of protein was determined according to the method of Bradford. [Analytical Biochemistry, Vol. 72, p. 248 (1976)].
In the case of `CCOC(=O)CNCC(=O)Nc1c2c(nc3ccccc13)CCCC2` [Example 40], the “Improved ratio (% based on Control)” value is reported as 3%. In the case of `CC(C)C(=O)Nc1c2c(nc3ccccc13)CCCC2` [Example 3], the “Improved ratio (% based on Control)” value is reported as 21%. With `O=C(CN1C(=O)CCC1=O)Nc1c2c(nc3ccccc13)CCCC2` [Example 35] the “Improved ratio (% based on Control)” value was 26%. With `Nc1c2c(nc3ccccc13)CCCC2` [9-Amino-1,2,3,4-tetrahydroacridine, reference compound] the “Improved ratio (% based on Control)” value was -73%. For `O=C(CN1CCCC1=O)Nc1c2c(nc3ccccc13)CCN(Cc1ccccc1)C2` [Example 21], the “Improved ratio (% based on Control)” value was 18%. With `CCCC(=O)Nc1c2c(nc3ccccc13)CCC(O)C2` (stereo not drawn) [Example 53, N-(1,2,3,4-tetrahydroacridin-2-ol-9-yl)butanamide] the “Improved ratio (% based on Control)” value was 14%. With `O=C(Cn1ccnc1)Nc1c2c(nc3ccccc13)CCCC2` [Example 41] the “Improved ratio (% based on Control)” value was 20%. In the case of `CN1CCc2nc3ccccc3c(NC(=O)CN3CCCC3=O)c2C1` [Example 20], the “Improved ratio (% based on Control)” value is reported as 28%.

Same assay, conditions: 10^-5 M; HACU, AF64A-treated rat hippocampus synaptosomal fraction; [3H]choline 1 μM; 37° C.
In the case of `Cc1ccc2nc3c(c(NC(=O)CN4CCCC4=O)c2c1)CCCC3` [Example 15], the “Improved ratio (% based on Control)” value is reported as -2%. With `CNC(=O)N1CCc2nc3ccccc3c(NC(=O)CN3CCCC3=O)c2C1` [Example 50] the “Improved ratio (% based on Control)” value was 27%. With `CCOC(=O)CNCC(=O)Nc1c2c(nc3ccccc13)CCCC2` [Example 40] the “Improved ratio (% based on Control)” value was 20%. With `CC(C)C(=O)Nc1c2c(nc3ccccc13)CCCC2` [Example 3] the “Improved ratio (% based on Control)” value was 19%. For `O=C(CN1C(=O)CCC1=O)Nc1c2c(nc3ccccc13)CCCC2` [Example 35], the “Improved ratio (% based on Control)” value was 27%. In the case of `Nc1c2c(nc3ccccc13)CCCC2` [9-Amino-1,2,3,4-tetrahydroacridine, reference compound], the “Improved ratio (% based on Control)” value is reported as -11%. In the case of `O=C(CN1CCCC1=O)Nc1c2c(nc3ccccc13)CCN(Cc1ccccc1)C2` [Example 21], the “Improved ratio (% based on Control)” value is reported as 32%. For `CCCC(=O)Nc1c2c(nc3ccccc13)CCC(O)C2` (stereo not drawn) [Example 53, N-(1,2,3,4-tetrahydroacridin-2-ol-9-yl)butanamide], the “Improved ratio (% based on Control)” value was 15%. For `O=C(Cn1ccnc1)Nc1c2c(nc3ccccc13)CCCC2` [Example 41], the “Improved ratio (% based on Control)” value was 46%. For `CN1CCc2nc3ccccc3c(NC(=O)CN3CCCC3=O)c2C1` [Example 20], the “Improved ratio (% based on Control)” value was 9%.

Same assay, conditions: 10^-6 M; HACU, AF64A-treated rat hippocampus synaptosomal fraction; [3H]choline 1 μM; 37° C.
In the case of `Cc1ccc2nc3c(c(NC(=O)CN4CCCC4=O)c2c1)CCCC3` [Example 15], the “Improved ratio (% based on Control)” value is reported as 28%. For `CNC(=O)N1CCc2nc3ccccc3c(NC(=O)CN3CCCC3=O)c2C1` [Example 50], the “Improved ratio (% based on Control)” value was 35%. With `CCOC(=O)CNCC(=O)Nc1c2c(nc3ccccc13)CCCC2` [Example 40] the “Improved ratio (% based on Control)” value was 14%. In the case of `CC(C)C(=O)Nc1c2c(nc3ccccc13)CCCC2` [Example 3], the “Improved ratio (% based on Control)” value is reported as 11%. For `O=C(CN1C(=O)CCC1=O)Nc1c2c(nc3ccccc13)CCCC2` [Example 35], the “Improved ratio (% based on Control)” value was 15%. In the case of `Nc1c2c(nc3ccccc13)CCCC2` [9-Amino-1,2,3,4-tetrahydroacridine, reference compound], the “Improved ratio (% based on Control)” value is reported as 8%. With `O=C(CN1CCCC1=O)Nc1c2c(nc3ccccc13)CCN(Cc1ccccc1)C2` [Example 21] the “Improved ratio (% based on Control)” value was 19%. With `CCCC(=O)Nc1c2c(nc3ccccc13)CCC(O)C2` (stereo not drawn) [Example 53, N-(1,2,3,4-tetrahydroacridin-2-ol-9-yl)butanamide] the “Improved ratio (% based on Control)” value was 23%. In the case of `O=C(Cn1ccnc1)Nc1c2c(nc3ccccc13)CCCC2` [Example 41], the “Improved ratio (% based on Control)” value is reported as 18%. For `CN1CCc2nc3ccccc3c(NC(=O)CN3CCCC3=O)c2C1` [Example 20], the “Improved ratio (% based on Control)” value was 23%.

Same assay, conditions: 10^-7 M; HACU, AF64A-treated rat hippocampus synaptosomal fraction; [3H]choline 1 μM; 37° C.
For `Cc1ccc2nc3c(c(NC(=O)CN4CCCC4=O)c2c1)CCCC3` [Example 15], the “Improved ratio (% based on Control)” value was -5%. In the case of `CNC(=O)N1CCc2nc3ccccc3c(NC(=O)CN3CCCC3=O)c2C1` [Example 50], the “Improved ratio (% based on Control)” value is reported as 20%. In the case of `CCOC(=O)CNCC(=O)Nc1c2c(nc3ccccc13)CCCC2` [Example 40], the “Improved ratio (% based on Control)” value is reported as 18%. For `CC(C)C(=O)Nc1c2c(nc3ccccc13)CCCC2` [Example 3], the “Improved ratio (% based on Control)” value was 16%. In the case of `O=C(CN1C(=O)CCC1=O)Nc1c2c(nc3ccccc13)CCCC2` [Example 35], the “Improved ratio (% based on Control)” value is reported as 26%. For `Nc1c2c(nc3ccccc13)CCCC2` [9-Amino-1,2,3,4-tetrahydroacridine, reference compound], the “Improved ratio (% based on Control)” value was 5%. In the case of `O=C(CN1CCCC1=O)Nc1c2c(nc3ccccc13)CCN(Cc1ccccc1)C2` [Example 21], the “Improved ratio (% based on Control)” value is reported as 11%. For `CCCC(=O)Nc1c2c(nc3ccccc13)CCC(O)C2` (stereo not drawn) [Example 53, N-(1,2,3,4-tetrahydroacridin-2-ol-9-yl)butanamide], the “Improved ratio (% based on Control)” value was 18%. For `O=C(Cn1ccnc1)Nc1c2c(nc3ccccc13)CCCC2` [Example 41], the “Improved ratio (% based on Control)” value was 5%. In the case of `CN1CCc2nc3ccccc3c(NC(=O)CN3CCCC3=O)c2C1` [Example 20], the “Improved ratio (% based on Control)” value is reported as 21%.

Same assay, conditions: 10^-8 M; HACU, AF64A-treated rat hippocampus synaptosomal fraction; [3H]choline 1 μM; 37° C.
In the case of `Cc1ccc2nc3c(c(NC(=O)CN4CCCC4=O)c2c1)CCCC3` [Example 15], the “Improved ratio (% based on Control)” value is reported as 3%. With `CNC(=O)N1CCc2nc3ccccc3c(NC(=O)CN3CCCC3=O)c2C1` [Example 50] the “Improved ratio (% based on Control)” value was 4%. With `CCOC(=O)CNCC(=O)Nc1c2c(nc3ccccc13)CCCC2` [Example 40] the “Improved ratio (% based on Control)” value was 8%. For `CC(C)C(=O)Nc1c2c(nc3ccccc13)CCCC2` [Example 3], the “Improved ratio (% based on Control)” value was 13%. With `O=C(CN1C(=O)CCC1=O)Nc1c2c(nc3ccccc13)CCCC2` [Example 35] the “Improved ratio (% based on Control)” value was 2%. In the case of `Nc1c2c(nc3ccccc13)CCCC2` [9-Amino-1,2,3,4-tetrahydroacridine, reference compound], the “Improved ratio (% based on Control)” value is reported as 2%. With `O=C(CN1CCCC1=O)Nc1c2c(nc3ccccc13)CCN(Cc1ccccc1)C2` [Example 21] the “Improved ratio (% based on Control)” value was 10%. For `CCCC(=O)Nc1c2c(nc3ccccc13)CCC(O)C2` (stereo not drawn) [Example 53, N-(1,2,3,4-tetrahydroacridin-2-ol-9-yl)butanamide], the “Improved ratio (% based on Control)” value was 14%. With `O=C(Cn1ccnc1)Nc1c2c(nc3ccccc13)CCCC2` [Example 41] the “Improved ratio (% based on Control)” value was 5%. For `CN1CCc2nc3ccccc3c(NC(=O)CN3CCCC3=O)c2C1` [Example 20], the “Improved ratio (% based on Control)” value was 10%.

Same assay, conditions: AF64A injected in cerebral ventricles
In the case of `Nc1c2c(nc3ccccc13)CCCC2` [9-Amino-1,2,3,4-tetrahydroacridine, reference compound], the “high affinity-choline uptake in hippocampus synaptosome of AF64A-injected rat (activation, in words)” value is reported as “could not be found out”.

Test system: not listed separately
Experiment: Acute toxicity test, oral, mouse
Conditions: in vivo
Method: The compound of the present invention was orally administered to a mouse and acute toxicity value was measured.
For `Nc1c2c(nc3ccccc13)CCCC2` [9-Amino-1,2,3,4-tetrahydroacridine, reference compound], the LD50 was 67 mg/kg.

Test system: human Alzheimer's disease
Experiment: not given
Conditions: in combination with use of lecithin; Summers, N. Engl. J. Med. 315, 1241 (1986); cited from earlier work
In the case of `Nc1c2c(nc3ccccc13)CCCC2` [9-Amino-1,2,3,4-tetrahydroacridine, reference compound], the “effectiveness in human Alzheimer's disease” value is given as “effective to human Alzheimer's disease”.
